The record followed here is patent publication US9371320B2, “Heterocyclic compound” (TAKEDA PHARMACEUTICAL COMPANY LIMITED, priority 2012, dated 2016).

Assay [1] deals with T1, JAK1 (Homo sapiens, UniProt P23458).
T1 construct: purchased Invitrogen
Description: JAK1 enzyme inhibition test (LANCE method). In kind it is biochemical. Conditions: for inhibition at 1 µM: test compound 1 μM, read-out: Inhibitory rate (%) JAK1 1 μM; for inhibition at 10 µM: read-out: Inhibitory rate (%) JAK1 10 μM. The method in brief:
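Reactions ran 1 h at room temperature in HEPES pH 7.5/MgCl2 buffer, with ATP solution at 150 μM and JAK1 and ULight peptide solutions at 187.5 ng/mL and 300 nM. Reactions were stopped with EDTA, and phosphorylation was read by Eu antibody time-resolved fluorescence at 665 nm. Inhibition was scaled to a no-enzyme control as 100%.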
For orientation: In TR-FRET formats the signal depends on donor and acceptor labels being close together.

For assay [2], the target named is T2, Tyk2 (Homo sapiens, UniProt P29597).
T2 construct: purchased Invitrogen
T2 sequence (P29597 whole entry): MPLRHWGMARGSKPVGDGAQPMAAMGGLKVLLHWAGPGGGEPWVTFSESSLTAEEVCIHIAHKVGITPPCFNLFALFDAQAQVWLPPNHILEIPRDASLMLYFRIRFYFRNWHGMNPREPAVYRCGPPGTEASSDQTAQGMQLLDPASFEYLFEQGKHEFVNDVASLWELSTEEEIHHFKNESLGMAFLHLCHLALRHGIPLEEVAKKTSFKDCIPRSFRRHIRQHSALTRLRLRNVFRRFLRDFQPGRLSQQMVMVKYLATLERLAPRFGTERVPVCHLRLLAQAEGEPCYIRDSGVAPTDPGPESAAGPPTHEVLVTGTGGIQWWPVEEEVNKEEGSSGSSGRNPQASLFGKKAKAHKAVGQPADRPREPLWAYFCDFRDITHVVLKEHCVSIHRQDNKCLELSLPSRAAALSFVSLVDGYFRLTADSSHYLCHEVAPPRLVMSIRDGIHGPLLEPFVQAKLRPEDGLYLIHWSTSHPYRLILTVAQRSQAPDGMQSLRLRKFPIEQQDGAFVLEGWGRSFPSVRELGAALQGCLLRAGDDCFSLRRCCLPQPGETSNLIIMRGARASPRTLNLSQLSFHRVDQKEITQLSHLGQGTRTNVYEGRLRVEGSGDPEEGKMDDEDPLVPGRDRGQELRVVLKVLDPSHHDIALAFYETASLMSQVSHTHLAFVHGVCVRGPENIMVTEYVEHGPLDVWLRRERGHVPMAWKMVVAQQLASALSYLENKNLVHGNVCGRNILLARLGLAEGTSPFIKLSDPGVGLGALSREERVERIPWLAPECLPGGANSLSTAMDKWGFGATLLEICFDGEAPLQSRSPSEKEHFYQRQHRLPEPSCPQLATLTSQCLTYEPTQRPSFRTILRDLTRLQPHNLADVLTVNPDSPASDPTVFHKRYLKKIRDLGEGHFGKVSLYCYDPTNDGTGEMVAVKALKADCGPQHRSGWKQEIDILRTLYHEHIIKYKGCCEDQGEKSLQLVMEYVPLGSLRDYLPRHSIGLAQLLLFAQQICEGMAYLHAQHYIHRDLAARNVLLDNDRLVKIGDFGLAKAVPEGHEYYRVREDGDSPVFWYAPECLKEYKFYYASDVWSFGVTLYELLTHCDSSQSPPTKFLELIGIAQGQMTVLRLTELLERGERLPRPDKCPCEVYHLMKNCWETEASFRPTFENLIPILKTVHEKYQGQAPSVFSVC
Description: Tyk2 enzyme inhibition test (LANCE method). It counts as biochemical. Conditions: for inhibition at 1 µM: test compound 1 μM, read-out: Inhibitory rate (%) Tyk2 1 μM; for inhibition at 10 µM: test compound 10 μM, read-out: Inhibitory rate (%) Tyk2 10 μM. The procedure, abridged:
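LANCE TR-FRET read-out (ex 340/em 665 nm, 100 μs delay) of ULight-JAK1 phosphorylation, with no-enzyme wells as 100% inhibition. Reaction run 1 h at room temperature in pH 7.5 HEPES buffer; enzyme 375 ng/mL, substrate 300 nM and ATP 30 μM are solution concentrations before mixing.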

The structures appear in SMILES notation. Where two headings read alike, the source gives them in different places.

T1 sequence (P23458 whole entry): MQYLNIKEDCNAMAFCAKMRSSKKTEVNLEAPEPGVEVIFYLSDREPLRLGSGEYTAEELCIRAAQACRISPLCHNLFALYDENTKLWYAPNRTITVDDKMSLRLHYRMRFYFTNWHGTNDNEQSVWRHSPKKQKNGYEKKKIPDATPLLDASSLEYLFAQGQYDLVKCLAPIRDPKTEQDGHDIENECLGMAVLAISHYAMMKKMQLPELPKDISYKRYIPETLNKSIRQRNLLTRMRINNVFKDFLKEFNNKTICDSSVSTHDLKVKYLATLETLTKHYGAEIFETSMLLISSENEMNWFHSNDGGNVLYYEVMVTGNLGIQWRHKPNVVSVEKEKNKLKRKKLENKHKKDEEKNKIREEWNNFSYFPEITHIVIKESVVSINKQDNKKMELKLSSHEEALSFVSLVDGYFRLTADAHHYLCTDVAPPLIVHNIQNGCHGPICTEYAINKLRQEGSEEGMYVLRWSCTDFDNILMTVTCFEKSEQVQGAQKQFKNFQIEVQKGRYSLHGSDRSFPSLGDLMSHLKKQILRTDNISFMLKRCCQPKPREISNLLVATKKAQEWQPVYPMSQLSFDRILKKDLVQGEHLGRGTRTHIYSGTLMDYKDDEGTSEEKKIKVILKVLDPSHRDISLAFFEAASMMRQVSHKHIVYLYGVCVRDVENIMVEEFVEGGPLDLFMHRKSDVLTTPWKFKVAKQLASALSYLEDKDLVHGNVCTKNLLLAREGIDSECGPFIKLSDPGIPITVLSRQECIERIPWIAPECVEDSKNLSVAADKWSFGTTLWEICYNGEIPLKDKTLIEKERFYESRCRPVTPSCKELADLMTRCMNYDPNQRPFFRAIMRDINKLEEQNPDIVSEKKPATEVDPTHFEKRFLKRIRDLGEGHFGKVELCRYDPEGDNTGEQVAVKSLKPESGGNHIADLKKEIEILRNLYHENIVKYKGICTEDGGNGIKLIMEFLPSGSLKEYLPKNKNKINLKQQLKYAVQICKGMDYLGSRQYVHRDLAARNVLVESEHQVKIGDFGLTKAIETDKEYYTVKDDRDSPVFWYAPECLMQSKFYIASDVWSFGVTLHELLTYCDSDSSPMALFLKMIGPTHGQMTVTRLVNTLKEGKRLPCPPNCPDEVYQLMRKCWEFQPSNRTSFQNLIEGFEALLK

On to `O=c1[nH]cc(Br)c2c1c(-c1cn[nH]c1)nn2-c1c(F)cccc1F` [Example 176, 7-bromo-1-(2,6-difluorophenyl)-3-(1H-pyrazol-4-yl)-1,5-dihydro-4H-pyrazolo[4,3-c]pyridin-4-one], for which the inhibition at 1 µM was found to be 95% in assay [1] and 100% in assay [2].

For `CCOC(=O)c1ccc(-c2nn(-c3c(F)cccc3F)c3cc[nH]c(=O)c23)cn1` [Example 259, ethyl 5-(1-(2,6-difluorophenyl)-4-oxo-4,5-dihydro-1H-pyrazolo[4,3-c]pyridin-3-yl)pyridine-2-carboxylate], the figures for the inhibition at 1 µM in assay [1] and in assay [2] were 59% and 81%, respectively.

With `NS(=O)(=O)c1ccc(-c2nn(C3CCCOC3)c3cc[nH]c(=O)c23)cc1` (centres unmarked) [Example 87, 4-(4-oxo-1-(tetrahydro-2H-pyran-3-yl)-4,5-dihydro-1H-pyrazolo[4,3-c]pyridin-3-yl)benzenesulfonamide], the inhibition at 1 µM in assay [1] was determined as 99%; in assay [2] it was 96%.

With `CCNC(=O)c1cc(-c2cn(C3CCCC3)c3c(C#N)c[nH]c(=O)c23)cs1` [Example 122, 4-(7-cyano-1-cyclopentyl-4-oxo-4,5-dihydro-1H-pyrrolo[3,2-c]pyridin-3-yl)-N-ethylthiophene-2-carboxamide], the results for the inhibition at 1 µM in assay [1] and in assay [2] were 99% and 100%, respectively.

`O=c1[nH]ccc2c1c(-c1cccc(C(F)(F)F)c1)nn2C1CCCC1` [Example 52, 1-cyclopentyl-3-(3-(trifluoromethyl)phenyl)-1,5-dihydro-4H-pyrazolo[4,3-c]pyridin-4-one]: the figures for the inhibition at 1 µM in assay [1] and in assay [2] were 43% and 46%, respectively.

As to `N#Cc1c[nH]c(=O)c2c(-c3ccccn3)cn(C3CCCC3)c12` [Example 132, 1-cyclopentyl-4-oxo-3-(pyridin-2-yl)-4,5-dihydro-1H-pyrrolo[3,2-c]pyridine-7-carbonitrile], the inhibition at 1 µM stood at 27% in assay [1] and 74% in assay [2].

As for `CC(=O)N1CCC(c2ccc(-c3nn(-c4c(F)cccc4F)c4cc[nH]c(=O)c34)cc2)C(F)(F)C1` (centres unmarked) [Example 316, 3-(4-(1-acetyl-3,3-difluoropiperidin-4-yl)phenyl)-1-(2,6-difluorophenyl)-1,5-dihydro-4H-pyrazolo[4,3-c]pyridin-4-one], the inhibition at 1 µM in assay [1] and in assay [2] was 99% throughout.

Take `CC1(O)CCC(n2nc(-c3csc(C(N)=O)c3)c3c(=O)[nH]ccc32)CC1` (centres unmarked) [Example 198, 4-(1-(4-hydroxy-4-methylcyclohexyl)-4-oxo-4,5-dihydro-1H-pyrazolo[4,3-c]pyridin-3-yl)thiophene-2-carboxamide]: the inhibition at 10 µM in assay [1] (test compound 10 μM (Ex. 182-220), beside Tyk2 1 μM) came out at 100%. The inhibition at 1 µM in assay [2] was found to be 100%.

`Cn1ccc(-c2cn(C3CCCC3)c3c(C#N)c[nH]c(=O)c23)n1` [Example 136, 1-cyclopentyl-3-(1-methyl-1H-pyrazol-3-yl)-4-oxo-4,5-dihydro-1H-pyrrolo[3,2-c]pyridine-7-carbonitrile]: the inhibition at 1 µM came out at 59% in assay [1] and 93% in assay [2].

Take `NS(=O)(=O)c1ccc(-c2cn(C3CCCC3)c3cc[nH]c(=O)c23)cc1` [Example 2, 4-(1-cyclopentyl-4-oxo-4,5-dihydro-1H-pyrrolo[3,2-c]pyridin-3-yl)benzenesulfonamide]: the inhibition at 1 µM in assay [1] amounted to 99%; in assay [2] it was 97%.

On to `N#Cc1c[nH]c(=O)c2c(-c3ccc(OCC(N)=O)cc3)cn(C3CCCC3)c12` [Example 120, 2-(4-(7-cyano-1-cyclopentyl-4-oxo-4,5-dihydro-1H-pyrrolo[3,2-c]pyridin-3-yl)phenoxy)acetamide], for which the inhibition at 1 µM was found to be 88% in assay [1] and 98% in assay [2].

For `COC(=O)c1c[nH]c(=O)c2c(-c3ccc(C(N)=O)cc3)cn(C3CCCC3)c12` [Example 29, methyl 3-(4-carbamoylphenyl)-1-cyclopentyl-4-oxo-4,5-dihydro-1H-pyrrolo[3,2-c]pyridine-7-carboxylate], the values for the inhibition at 1 µM in assay [1] and in assay [2] were 14% and 83%, respectively.

Take `CC(C)(C#N)c1ccc(-c2cn(C3CCCC3)c3c(C#N)c[nH]c(=O)c23)cc1` [Example 139, 3-(4-(2-cyanopropan-2-yl)phenyl)-1-cyclopentyl-4-oxo-4,5-dihydro-1H-pyrrolo[3,2-c]pyridine-7-carbonitrile]: the inhibition at 1 µM worked out at 96% in assay [1] and 98% in assay [2].

Take `NC(=O)c1ccc(F)c(-c2nn(-c3c(F)cccc3F)c3c(Cl)c[nH]c(=O)c23)c1` [Example 269, 3-(7-chloro-1-(2,6-difluorophenyl)-4-oxo-4,5-dihydro-1H-pyrazolo[4,3-c]pyridin-3-yl)-4-fluorobenzamide]: the inhibition at 10 µM came out at 24% in assay [1] (test compound 10 μM) and 29% in assay [2].

In the case of `N#Cc1c[nH]c(=O)c2c(-c3cnn(CC(N)=O)c3)cn(C3CCCC3)c12` [Example 98, 2-(4-(7-cyano-1-cyclopentyl-4-oxo-4,5-dihydro-1H-pyrrolo[3,2-c]pyridin-3-yl)-1H-pyrazol-1-yl)acetamide], the inhibition at 1 µM was determined as 78% in assay [1] and 97% in assay [2].

Take `O=c1[nH]ccc2c1c(-c1ccccc1)nn2C1CCCC1` [Example 43, 1-cyclopentyl-3-phenyl-1,5-dihydro-4H-pyrazolo[4,3-c]pyridin-4-one]: the inhibition at 1 µM was 87% in assay [1] and 91% in assay [2].

With `CC(C)(C)n1nc(NC(=O)c2ccccc2)c2c(=O)[nH]ccc21` [Example 265, N-(1-tert-butyl-4-oxo-4,5-dihydro-1H-pyrazolo[4,3-c]pyridin-3-yl)benzamide], the inhibition at 10 µM in assay [1] (test compound 10 μM) turned out to be 21%; in assay [2], 24%.

As to `N#Cc1cccc(F)c1-n1nc(-c2cn[nH]c2)c2c(=O)[nH]ccc21` [Example 315, 3-fluoro-2-(4-oxo-3-(1H-pyrazol-4-yl)-4,5-dihydro-1H-pyrazolo[4,3-c]pyridin-1-yl)benzonitrile], the inhibition at 1 µM in assay [1] is 97%; in assay [2] it was 98%.

Turning to `N#Cc1c[nH]c(=O)c2c1c(C1CCCC1)nn2-c1csc(C(N)=O)c1` [Example 66, 4-(4-cyano-3-cyclopentyl-7-oxo-6,7-dihydro-1H-pyrazolo[3,4-c]pyridin-1-yl)thiophene-2-carboxamide], the inhibition at 1 µM worked out at 66% in assay [1] and 92% in assay [2].

For `NS(=O)(=O)c1ccc(Nc2nn(C3CCCC3)c3cc[nH]c(=O)c23)cc1` [Example 297, 4-((1-cyclopentyl-4-oxo-4,5-dihydro-1H-pyrazolo[4,3-c]pyridin-3-yl)amino)benzenesulfonamide], the inhibition at 1 µM came out at 98% in assay [1] and 99% in assay [2].

Turning to `NC(=O)c1cc(-c2nn(C3CCC4(CC3)OCCO4)c3cc[nH]c(=O)c23)cs1` [Example 148, 4-(1-(1,4-dioxaspiro[4.5]dec-8-yl)-4-oxo-4,5-dihydro-1H-pyrazolo[4,3-c]pyridin-3-yl)thiophene-2-carboxamide], the inhibition at 1 µM was 99% in assay [1] and 98% in assay [2].

Turning to `O=C1Cc2cc(-c3nn(C4CCCC4)c4cc[nH]c(=O)c34)ccc2N1` [Example 58, 1-cyclopentyl-3-(2-oxo-2,3-dihydro-1H-indol-5-yl)-1,5-dihydro-4H-pyrazolo[4,3-c]pyridin-4-one], the figures for the inhibition at 1 µM in assay [1] and in assay [2] were 86% and 91%, respectively.

For `NC(=O)c1cc(-c2nn(C3CCCC3)c3c(Br)c[nH]c(=O)c23)cs1` [Example 280, 4-(7-bromo-1-cyclopentyl-4-oxo-4,5-dihydro-1H-pyrazolo[4,3-c]pyridin-3-yl)thiophene-2-carboxamide], the results for the inhibition at 1 µM in assay [1] and in assay [2] were 94% and 97%, respectively.

On to `N#CCc1ccc(-c2cn(C3CCOCC3)c3cc[nH]c(=O)c23)cc1` [Example 25, (4-(4-oxo-1-(tetrahydro-2H-pyran-4-yl)-4,5-dihydro-1H-pyrrolo[3,2-c]pyridin-3-yl)phenyl)acetonitrile], for which the values for the inhibition at 1 µM in assay [1] and in assay [2] were 77% and 71%, respectively.

Take `O=c1[nH]ccc2c1c(-c1ccccc1C(F)(F)F)nn2C1CCCC1` [Example 53, 1-cyclopentyl-3-(2-(trifluoromethyl)phenyl)-1,5-dihydro-4H-pyrazolo[4,3-c]pyridin-4-one]: the inhibition at 10 µM in assay [1] (test compound 10 μM) was 10%; in assay [2], 28%.

In the case of `O=c1[nH]cc(Cl)c2c1c(-c1ccc(N3CCOCC3)nc1)nn2-c1c(F)cccc1F` [Example 164, 7-chloro-1-(2,6-difluorophenyl)-3-(6-(morpholin-4-yl)pyridin-3-yl)-1,5-dihydro-4H-pyrazolo[4,3-c]pyridin-4-one], the inhibition at 1 µM in assay [1] was 66%; in assay [2], 99%.

As to `O=c1[nH]ccc2c1c(-c1cccc(CN3CCC(F)(F)C3)c1)nn2-c1c(F)cccc1F` [Example 261, 1-(2,6-difluorophenyl)-3-(3-((3,3-difluoropyrrolidin-1-yl)methyl)phenyl)-1,5-dihydro-4H-pyrazolo[4,3-c]pyridin-4-one], the inhibition at 1 µM in assay [1] is 41%; in assay [2] it was 94%.

`N#CCc1ccc(-c2cn(C3CCOC3)c3cc[nH]c(=O)c23)cc1` (centres unmarked) [Example 22, (4-(4-oxo-1-(tetrahydrofuran-3-yl)-4,5-dihydro-1H-pyrrolo[3,2-c]pyridin-3-yl)phenyl)acetonitrile]: the results for the inhibition at 1 µM in assay [1] and in assay [2] were 77% and 53%, respectively.
